Reference: paper PMC8037182, “Solvothermal Synthesis of Multiple Dihydropyrimidinones at a Time as Inhibitors of Eg5” (Molecules, 2021)

Molecular target: T1, Eg5 motor protein (Homo sapiens, UniProt P52732)
T1 construct: Eg5 motor domain (amino acids 1-368) was cloned into pET22b; His-tag (C); made in house; host or cells: Escherichia coli BL21 (DE3)
T1 sequence (P52732 1-368): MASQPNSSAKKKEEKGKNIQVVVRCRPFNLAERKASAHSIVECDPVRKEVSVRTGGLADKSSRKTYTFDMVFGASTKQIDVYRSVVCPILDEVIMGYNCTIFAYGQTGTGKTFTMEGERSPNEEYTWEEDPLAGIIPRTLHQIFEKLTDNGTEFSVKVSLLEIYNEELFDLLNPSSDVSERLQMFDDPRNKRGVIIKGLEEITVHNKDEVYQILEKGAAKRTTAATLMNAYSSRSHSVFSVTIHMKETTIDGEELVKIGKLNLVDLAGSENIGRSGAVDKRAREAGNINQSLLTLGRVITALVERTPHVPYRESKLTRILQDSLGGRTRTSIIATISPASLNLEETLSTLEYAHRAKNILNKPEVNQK
Assay: Lineweaver–Burk plot analysis of Eg5 ATPase inhibition
Type: biochemical
Protocol: Assays followed methods similar to that described above for the primary Eg5 motor protein ATPase assay. For either study, compound C9 were tested at 60.50 μM, 30.25 μM, 15.13 μM, 0 μM. ATP concentration was varied from 52 μM to 417 μM. The enzyme concentration tested was 100 nM. All conditions were performed in three independent duplicate experiments. The data were analyzed with GraphPad Prism 6.02 software.
Figure 1 Steady-state inhibition of Eg5 by C9. […] Lines represent a curve fit of the global data set to a mixed-type inhibition model.

CCOc1ccccc1C1NC(=S)NC(C)=C1C(=O)Nc1ccc(Cl)cc1 (centres unmarked) [C9]
Slope of the Lineweaver-Burk plot, Mean (C9 15.13 uM): 0.649 | OD630 Value Mean (C9 15.13 uM, ATP 0.052 mM): 0.142 | OD630 Value Mean (C9 15.13 uM, ATP 0.104 mM): 0.177 | OD630 Value Mean (C9 15.13 uM, ATP 0.209 mM): 0.199 | OD630 Value Mean (C9 15.13 uM, ATP 0.313 mM): 0.226 | OD630 Value Mean (C9 15.13 uM, ATP 0.417 mM): 0.268 | Slope of the Lineweaver-Burk plot, Mean (C9 30.25 uM): 0.942 | OD630 Value Mean (C9 30.25 uM, ATP 0.052 mM): 0.126 | OD630 Value Mean (C9 30.25 uM, ATP 0.104 mM): 0.155 | OD630 Value Mean (C9 30.25 uM, ATP 0.209 mM): 0.174 | OD630 Value Mean (C9 30.25 uM, ATP 0.313 mM): 0.197 | OD630 Value Mean (C9 30.25 uM, ATP 0.417 mM): 0.231 | Slope of the Lineweaver-Burk plot, Mean (C9 60.50 uM): 1.374 | OD630 Value Mean (C9 60.5 uM, ATP 0.052 mM): 0.114 | OD630 Value Mean (C9 60.5 uM, ATP 0.104 mM): 0.138 | OD630 Value Mean (C9 60.5 uM, ATP 0.209 mM): 0.156 | OD630 Value Mean (C9 60.5 uM, ATP 0.313 mM): 0.171 | OD630 Value Mean (C9 60.5 uM, ATP 0.417 mM): 0.198 | type of Eg5 inhibition (Lineweaver–Burk plot, ATP varied 52–417 μM): mixed-type Eg5 inhibitor | Ki (secondary plot of Lineweaver–Burk plot, slope versus concentration): 15.7 µM
